Measured values from patent US7691869B2, “Pyrrolotriazolopyrimidine derivatives, pharmaceutical compositions containing them and methods of treating conditions and diseases mediated by the adenosine A2A receptor activity” (King Pharmaceuticals Research and Development, Inc., priority 2008, dated 2010).

Legend:
[1] = biological target: T1, human adenosine A2A receptor (Homo sapiens, UniProt P29274); assay: Human cloned A2A adenosine receptor binding assay ([3H]ZM241385 displacement, CHO membranes); settings: [3H]ZM241385, CHO cells transfected with human recombinant A2A receptors
T1 construct: expressed in transfected cells; host or cells: CHO cells (membrane preparation)
T1 sequence (P29274 whole entry): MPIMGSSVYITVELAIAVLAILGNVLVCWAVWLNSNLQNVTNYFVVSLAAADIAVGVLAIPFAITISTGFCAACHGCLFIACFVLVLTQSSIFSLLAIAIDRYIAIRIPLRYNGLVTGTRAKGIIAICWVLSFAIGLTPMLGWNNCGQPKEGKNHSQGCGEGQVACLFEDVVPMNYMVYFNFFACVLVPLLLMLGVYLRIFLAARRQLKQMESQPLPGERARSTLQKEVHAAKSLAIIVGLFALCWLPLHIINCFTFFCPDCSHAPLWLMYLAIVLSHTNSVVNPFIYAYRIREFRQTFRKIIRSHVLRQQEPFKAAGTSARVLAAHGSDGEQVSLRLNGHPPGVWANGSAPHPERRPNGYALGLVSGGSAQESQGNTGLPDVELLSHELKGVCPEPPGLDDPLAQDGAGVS
Method: CHO Membranes Preparation
The human adenosine receptors have been transfected in CHO cells according with the method previously described by Klotz et al. (Naunyn-Schmied. Arch Pharm. 1998, 357: 1-9). Briefly, the cells are grown adherently and maintained in Dulbecco's Modified Eagles Medium with nutrient mixture F12 (DMEM/F12) without nucleosides, containing 10% fetal calf serum, penicillin (100 U/mL), streptomycin (100 μg/mL), L-glutamine (2 mM) and Geneticin (G418, 0.2 mg/ml) at 37° C. in 5% CO2/95% air. For membrane preparation the culture medium is removed and the cells are ished with phosphate-buffered saline and scraped off T75 flasks in ice-cold hypo tonic buffer (5 mM Tris HCl, 1 mM EDTA, pH 7.4). The cell suspension is homogenized with Polytron, the homogenate is spun for 10 min at 1000×g and the supernatant is then centrifuged for 30 min at 100,000×g. […]
All new synthesized compounds have been tested to evaluate their affinity to human A1, A2A, A2B and A3 adenosine receptors. […] Non-specific binding is determined in the presence of 10 μM of CHA and this is always ≦10% of the total binding. […] Non-specific binding is determined in the presence of 1 μM ZM 241385 and is about 20% of total binding. […] Bound and free radioactivity are separated by filtering the assay mixture through Whatman GF/B glass fiber filters using a Micro-Mate 196 cell harvester (Packard Instrument Co.). The filter bound radioactivity is counted on a Top Count (efficiency 57%) with Micro-Scint 20.
The protein concentration is determined according to a Bio-Rad method (Bradford, Anal Biochem. 1976, 72: 248-254) with bovine albumin as a standard reference. Inhibitory binding constant, Ki, values are calculated from those of IC50 according to Cheng & Prusoff equation (Biochem. Pharmacol. 1973, 22: 3099-3108): Ki=IC50/(1+[C*]/KD*) where [C*] is the concentration of the radioligand and KD* its dissociation constant. […] Data are expressed as geometric mean with 95% confidence limits in parentheses.

[2] = tested on: 6-OHDA lesion rats; assay: 6-OHDA lesion of the middle forebrain bundle in rats, Protocol B (apomorphine-induced rotation); assay type: in vivo, rat; settings: 30 mg/kg single i.p. dose; threshold dose of apomorphine 0.02 mg/kg i.p.; significant increase, p≦0.05; FIG. 1
Method: Adult male Sprague-Dowley rats (Harlan UK ltd., Bicester, Oxon, UK), weighing 255±15 g, are used in all experiments. The rats are housed in groups of up to 5 per cage, and the animals are fed an expanded rodent diet of RM1(E) SQC (Special Diets Services, Witham, UK) ab libitum, and allowed free access to water, under controlled temperature and 12 hour light-dark cycle.
The test compounds are formulated for dosing by initially wet grinding a known amount in approximately 10% of the final volume of vehicle, i.e., propylene glycol/polyethylene glycol (PEG400)/glucose (D5W)-15/15/70 v %, in a mortal and pestle. Once suitably wetted, approximately 30% of the remaining vehicle is added, stirred for up to 10 min, and then sonicated for approximately 5 min. This step is repeated twice, using remaining vehicle to provide even suspensions of 0.6, 2 and 6 mg/mL. No correction factor is applied. All test substance formulations are clear to light tan colored suspensions, stored at RT and protected from light until dosing. The dose volume for the test compounds is 5 mL/kg to provide dosages of 3, 10 and 30 mg/kg, respectively.
Apomorphine hydrochloride (HCl) hemihydrate (Sigma, UK) is formulated for dosing by dissolving a known amount in 0.9% w/v sodium chloride (Baxter Healthcare Ltd., UK) to produce a clear, colorless solution of 0.02 mg/mL. […]

Row | Ki [1] [nM] | SMILES | number of contralateral rotations [2]
1 | ~28 | CN(CCN(C)c1ccc(F)cc1F)CCn1ccc2c1nc(N)n1nc(-c3ccco3)nc21 [Example 29, N^1-(2-(5-Amino-2-(furan-2-yl)-7H-pyrrolo[3,2-e][1,2,4]triazolo[1,5-c]pyrimidin-7-yl)ethyl)-N^2-(2,4-difluorophenyl)-N^1,N^2-dimethylethane-1,2-diamine] | 
2 | ~1 | Nc1nc2c(ccn2CCN2CCN(C(=O)c3ccc(F)cc3F)CC2)c2nc(-c3ccco3)nn12 [Example 4, (4-(2-(5-Amino-2-(furan-2-yl)-7H-pyrrolo[3,2-e][1,2,4]triazolo[1,5-c]pyrimidin-7-yl)ethyl)piperazin-1-yl)(2,4-difluorophenyl)methanone] | 
3 | ~5 | Nc1nc2c(ccn2CCN2CCN(c3ccc(F)cc3F)CC2)c2nc(-c3ccco3)nn12 [Example 30, 7-(2-(4-(2,4-Difluorophenyl)piperazin-1-yl)ethyl)-2-(furan-2-yl)-7H-pyrrolo[3,2-e][1,2,4]triazolo[1,5-c]pyrimidin-5-amine] | 228±38
